US20250026718A1, “SOLID FORMS OF MESEMBRINE AND THERAPEUTIC USES THEREOF” (Sensorium Therapeutics, Inc., priority 2022, published 2025)
Values after ≈ are worked out from the molar mass of the structure shown. “Also recorded” adds a separate entry of the source. Like-named read-outs stand apart in the source and are kept apart here.

Tests used:
[1] = solid state stability: storage at 25° C./60% RH and 40° C./75% RH for 1 week, XRPD and HPLC purity; assay type: physicochemical; settings: for Purity (area %): HPLC purity; for Form change: XRPD; for HPLC purity change after storage: 40° C./75% RH for 1 week
Experimental: For XRPD analysis, Empyrean X-ray powder diffractometer from Malvern Panalytical was used. Sample was spread on the middle of a zero-background Si holder.
XRPD and HPLC purity was performed for stability samples to assess the physical and chemical stability.

hygroscopicity by DVS = assay type: physicochemical
Experimental: Hygroscopicity of Freeform Form A, HCl Form A, Besylate Form B, and Gentisate Form A was evaluated by DVS.

[2] = target: sodium-dependent serotonin transporter (SERT) (Homo sapiens, UniProt P31645); settings: reported for the naturally occurring compound from Sceletium tortuosum; cited from earlier work
Sequence of sodium-dependent serotonin transporter (SERT) (P31645 whole entry, species assumed): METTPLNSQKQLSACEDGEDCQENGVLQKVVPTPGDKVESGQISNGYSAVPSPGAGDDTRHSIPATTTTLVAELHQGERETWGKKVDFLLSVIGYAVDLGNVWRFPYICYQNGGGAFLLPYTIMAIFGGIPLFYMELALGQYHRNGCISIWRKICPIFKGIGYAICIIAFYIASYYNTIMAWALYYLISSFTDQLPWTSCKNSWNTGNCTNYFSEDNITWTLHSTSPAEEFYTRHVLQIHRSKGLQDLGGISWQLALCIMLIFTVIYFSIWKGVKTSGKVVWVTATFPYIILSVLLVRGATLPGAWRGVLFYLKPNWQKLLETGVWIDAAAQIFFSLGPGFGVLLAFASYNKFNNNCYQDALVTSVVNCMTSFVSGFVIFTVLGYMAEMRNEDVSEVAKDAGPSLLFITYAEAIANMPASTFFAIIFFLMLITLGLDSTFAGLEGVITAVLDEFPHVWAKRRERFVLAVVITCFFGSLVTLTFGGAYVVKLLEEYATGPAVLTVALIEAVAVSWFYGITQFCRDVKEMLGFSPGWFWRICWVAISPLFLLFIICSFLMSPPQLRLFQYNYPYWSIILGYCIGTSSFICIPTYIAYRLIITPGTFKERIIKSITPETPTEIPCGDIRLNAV

[3] = kinetic solubility in H2O and bio-relevant media (SGF, FaSSIF, FeSSIF) at 37° C.; assay type: physicochemical; settings: thermodynamic from solid; for solubility: 37 °C, read-out: observed solubility; for solubility kinetic / solubility at 1 h / solubility at 2 h / solubility at 4 h / solubility at 24 h: 37° C.; for solubility kinetic: at 1, 2, 4 and 24 hrs; for solubility at 1 h / solubility at 2 h / solubility at 4 h / solubility at 24 h: read-out: S: Solubility (mg/mL), calculated by freebase
Experimental: • 1. Add about 40 mg of samples and 4 mL of corresponding medium into a 5-mL glass vial. The loading concentration was ˜10 mg/mL (calculated by freebase). • 2. Roll at 37° C. (˜25 rpm). Sample at 1, 2, 4 and 24 hrs. • 3. At each time-point, sample 0.8 mL of solution or suspension into a centrifuge tube prior to centrifugation (12000 rpm, 37° C., 5 min) and filtration through 0.45 μm PTFE membrane. • 4. Test pH and concentration for the filtrate. Analyze residual solids by XRPD.

[4] = solubility of Freeform Form A in solvents; assay type: physicochemical
Text: Freeform Form A was a gum material. The material had the solubility shown below:

COc1ccc([C@@]23CCC(=O)C[C@@H]2N(C)CC3)cc1OC.O=S(=O)(O)c1ccccc1 [Besylate Form B]
form change by XRPD after storage ([1]; 25° C./60% RH/open/1 week): no form change
Purity (area %) ([1]; 25° C./60% RH/open/1 week): 97.16 area %
Form change ([1]; 25° C./60% RH/open/1 week): No
HPLC purity change after storage [1]: slight purity decrease
form change by XRPD after storage ([1]; 40° C./75% RH/open/1 week): no form change
Purity (area %) ([1]; 40° C./75% RH/open/1 week): 97.12 area %
Form change ([1]; 40° C./75% RH/open/1 week): No
Purity (area %) ([1]; Initial): 97.21 area %
Water uptake at 25° C./80% RH (wt %) (hygroscopicity by DVS; DVS): 0.32 wt %
water uptake at 25° C./80% RH (hygroscopicity by DVS; DVS): 0.32%
Form change by XRPD after DVS test (hygroscopicity by DVS): No form change and No

COc1ccc([C@@]23CCC(=O)C[C@@H]2N(C)CC3)cc1OC [Compound 1, 3a-(3,4-dimethoxyphenyl)-octahydro-1-methyl-6H-indol-6-one]
serotonin (5-HT) uptake inhibitory activity [2]: serotonin (5-HT) uptake inhibitory activity

COc1ccc([C@@]23CCC(=O)C[C@@H]2N(C)CC3)cc1OC [Freeform Form A]
form change by XRPD after storage ([1]; 25° C./60% RH/open/1 week): amorphous
Purity (area %) ([1]; 25° C./60% RH/open/1 week): 98.14 area %
Form change ([1]; 25° C./60% RH/open/1 week): Amorphous
HPLC purity change after storage [1]: slight purity decrease
form change by XRPD after storage ([1]; 40° C./75% RH/open/1 week): amorphous
Purity (area %) ([1]; 40° C./75% RH/open/1 week): 98.01 area %
Form change ([1]; 40° C./75% RH/open/1 week): Amorphous
Purity (area %) ([1]; Initial): 98.15 area %
Form change by XRPD after DVS test (hygroscopicity by DVS): amorphous; also recorded: Amorphous*
behaviour during DVS test (hygroscopicity by DVS; during DVS test): deliquesced
solubility ([3]; simulated gastric fluid, in SGF): > 8300 µg/mL
solubility ([3]; in FaSSIF): > 8300 µg/mL
solubility ([3]; in FeSSIF): > 8300 µg/mL
solubility ([3]; water, in H2O): > 8300 µg/mL
solubility kinetic ([3]; simulated gastric fluid, SGF): > 8300 µg/mL
solubility at 1 h ([3]; simulated gastric fluid, SGF): > 8.6 mg/mL
solubility at 2 h ([3]; simulated gastric fluid, SGF): > 9.2 mg/mL
solubility at 4 h ([3]; simulated gastric fluid, SGF): > 8.4 mg/mL
solubility at 24 h ([3]; simulated gastric fluid, SGF): > 8.7 mg/mL
solubility kinetic ([3]; FaSSIF): > 8300 µg/mL
solubility at 1 h ([3]; FaSSIF): > 8.7 mg/mL
solubility at 2 h ([3]; FaSSIF): > 8.7 mg/mL
solubility at 4 h ([3]; FaSSIF): > 8.3 mg/mL
solubility at 24 h ([3]; FaSSIF): > 8.5 mg/mL
solubility kinetic ([3]; FeSSIF): > 8300 µg/mL
solubility at 1 h ([3]; FeSSIF): > 8.7 mg/mL
solubility at 2 h ([3]; FeSSIF): > 9.8 mg/mL
solubility at 4 h ([3]; FeSSIF): > 9.1 mg/mL
solubility at 24 h ([3]; FeSSIF): > 9.9 mg/mL
solubility kinetic ([3]; water, H2O): > 8300 µg/mL
solubility at 1 h ([3]; water, H2O): > 9.1 mg/mL
solubility at 2 h ([3]; water, H2O): > 9.3 mg/mL
solubility at 4 h ([3]; water, H2O): > 9.4 mg/mL
solubility at 24 h ([3]; water, H2O): > 9.3 mg/mL
solubility ([4]; 1,4-Dioxane, organic solvent or mixture): > 40000 µg/mL
solubility ([4]; 2-MeTHF, organic solvent or mixture): > 40000 µg/mL
solubility ([4]; ACN, organic solvent or mixture): > 44000 µg/mL
solubility ([4]; Acetone, organic solvent or mixture): > 40000 µg/mL
solubility ([4]; CPME, organic solvent or mixture): > 40000 µg/mL
solubility ([4]; DCM, organic solvent or mixture): > 42000 µg/mL
solubility ([4]; EtOAc, organic solvent or mixture): 19000 to 38000 µg/mL (≈ 65.7 to 131 mM)
solubility ([4]; EtOH, organic solvent or mixture): > 42000 µg/mL
solubility ([4]; H2O, water): > 42000 µg/mL
solubility ([4]; IPA, organic solvent or mixture): > 38000 µg/mL
solubility ([4]; IPAc, organic solvent or mixture): > 36000 µg/mL
solubility ([4]; MIBK, organic solvent or mixture): > 38000 µg/mL
solubility ([4]; MTBE, organic solvent or mixture): > 40000 µg/mL
solubility ([4]; MeOH, organic solvent or mixture): > 36000 µg/mL
solubility ([4]; THF, organic solvent or mixture): > 44000 µg/mL

COc1ccc([C@@]23CCC(=O)C[C@@H]2N(C)CC3)cc1OC.O=C(O)c1cc(O)ccc1O [Gentisate Form A]
form change by XRPD after storage ([1]; 25° C./60% RH/open/1 week): no form change
Purity (area %) ([1]; 25° C./60% RH/open/1 week): 97.18 area %
Form change ([1]; 25° C./60% RH/open/1 week): No
HPLC purity change after storage [1]: slight purity decrease
form change by XRPD after storage ([1]; 40° C./75% RH/open/1 week): no form change
Purity (area %) ([1]; 40° C./75% RH/open/1 week): 97.11 area %
Form change ([1]; 40° C./75% RH/open/1 week): No
Purity (area %) ([1]; Initial): 97.22 area %
Water uptake at 25° C./80% RH (wt %) (hygroscopicity by DVS; DVS): 0.17 wt %
water uptake at 25° C./80% RH (hygroscopicity by DVS; DVS): 0.17%
Form change by XRPD after DVS test (hygroscopicity by DVS): No form change and No

COc1ccc(C23CCC(=O)CC2N(C)CC3)cc1OC.Cl (stereo not shown) [HCl Form A]
form change by XRPD after storage ([1]; 25° C./60% RH/open/1 week): no form change
Purity (area %) ([1]; 25° C./60% RH/open/1 week): 97.06 area %
Form change ([1]; 25° C./60% RH/open/1 week): No
HPLC purity change after storage [1]: slight purity decrease
form change by XRPD after storage ([1]; 40° C./75% RH/open/1 week): no form change
Purity (area %) ([1]; 40° C./75% RH/open/1 week): 97.00 area %
Form change ([1]; 40° C./75% RH/open/1 week): No
Purity (area %) ([1]; Initial): 97.15 area %
Water uptake at 25° C./80% RH (wt %) (hygroscopicity by DVS; DVS): 0.72 wt %
water uptake at 25° C./80% RH (hygroscopicity by DVS; DVS): 0.72%
water uptake at 95% RH (hygroscopicity by DVS; DVS, 95% RH): 18.46%
Form change by XRPD after DVS test (hygroscopicity by DVS): No form change
Form change by XRPD after DVS test (hygroscopicity by DVS; listed as HCl salt Form A): No form change and No
